≈ marks a conversion by molar mass, not a printed value. Where two headings read alike, the source gives them in different places.
Columns and labels:
[1] = system: common mosquito (Culex pipiens pallens); assay: Test Example 1: common mosquito larvae in diluted emulsifiable concentrate, mortality and emergence inhibition; assay type: in vivo; settings: Culex pipiens; for mortality at 3.5 ppm: 24 h; for pest or weed control at 3.5 ppm: counted when all pupae of no treatment group had emerged, read-out: Inhibitory ratio of emergence
Protocol: The emulsifiable concentrates of the following present compounds obtained according to Formulation example 2 were each diluted with water so as to obtain respective aqueous solutions containing 3.5 ppm of said compounds, respectively. One hundred ml of thus diluted aqueous solutions were poured into respective polyethylene cups of 180 ml volume, and 20 of the last instar larvae of common mosquito (Culex pipiens pallens) were liberated thereto. After one day, the dead or alive of the larvae were examined.
Thereafter, the feed was added to respective cups and the number of emerged pupae of the respective cups was counted when all the pupae of no treatment group had emerged to calculate the inhibitory ratios of the emergence.
The mortality and the inhibitory ratio of the emergence are shown according to the following three criteria: • mortality: A; 90% or more, • B; less than 90% to 10%, • C; less than 10%. • inhibitory: A; 90% or more, ratio of • emergence B; less than 90% to 80% • C; less than 80%.

[2] = system: tobacco cutworms (Spodoptera litura); assay: Test Example 2: tobacco cutworm larvae on treated artificial feed; assay type: in vivo; settings: Spodoptera litura, 144 h
Source text: The emulsifiable concentrates of the following present compounds obtained according to Formulation example 2 were each diluted with water to obtain respective 667 times dilution aqueous solutions (corresponding to 150 ppm) containing said compounds, respectively. Two ml of thus diluted solutions were impregnated into the artificial feeds (13 g) for tobacco cutworms (Spodoptera litura) and thus prepared feeds were placed in polyethylene cups of 11 cm in diameter, respectively. Ten of the 4th instar larvae were liberated thereon.
Six days after, the dead and alive of the larvae were examined to calculate the mortality (two replications).

[3] = system: brown rice planthoppers (Nila^parvata luqens); assay: Test Example 7: spray on potted rice plants, brown rice planthopper, residual effect; assay type: in vivo; settings: 20 h
Protocol: The emulsifiable concentrates of the following compounds and control compounds obtained according to Formulation example 2 were each diluted with water one thousand times (corresponding to 100 ppm) and each of thus prepared solutions was sprayed at the rate of 20 ml/2 pots to the rice plant seedlings planted in Wagner pots having a surface area of one ten thousandth are. After air-drying, the treated plants were covered with the iron wire cages, and about 15 adults of brown rice planthoppers (Nila^parvata luqens) were liberated thereto. Further, about 15 adults thereof were also liberated thereto 4 days after the application to examine the residual effects. Twenty hours after each liberation, the dead and alive adults were examined to calculate the mortality.

[4] = system: carmine spider mite (Tetranychus cinnabarinus); assay: Test Example 8: carmine spider mite on potted kidney bean, degree of damage; assay type: in vivo; set-up: key: -: No damage is observed.; +: Slight damage is observed.; ++: The same damage as in the untreated plot is observed; settings: 500 ppm spray 10 ml/pot plus 2 ml soil treatment; after 8 days
Protocol: The female adults of carmine spider mite (Tetranychus cinnabarinus) were put at a rate of 10 adults/leaf on the leaves of potted kidney bean (at the primordial leaf stage) which had elapsed 7 days after sowing, and placed in a constant-temperature room kept at 25°C. After 6 days, the 200-fold aqueous dilute solutions (corresponding to 500 ppm), prepared from the emulsifiable concentrates of the following present compounds and control compounds prepared according to Formulation example 2, were each sprayed at a rate of 10 ml/pot on a turn table. At the same time, the soil in the pot was treated with 2 ml of each aqueous solution. After 8 days, the degree of damage of the plant by the mite was examined.
Criteria of the effect: • - : No damage is observed. • + : Slight damage is observed. • ++: The same damage as in the untreated plot is observed.

[5] = system: resistant strain of green rice leafhopper (Nephotetix cincticeps); assay: Test Example 3: rice seedling dip test, resistant green rice leafhopper; assay type: in vivo; settings: Nephotettix cincticeps, 24 h, adults of resistant strain, after one day
Protocol: The emulsifiable concentrates of the following present compounds and control compounds obtained according to Formulation example 2 were each diluted with water to a prescribed concentration, and rice seedlings (about 12 cm in length) were dipped for 1 minute in the resulting aqueous dilute solutions. After air-drying, the seedlings were placed in test tube, and 10 adults of a resistant strain of green rice leafhopper (Nephotetix cincticeps) were liberated in the tube. After one day, the dead and alive of the adults were examined to obtain LC50 (50% lethal concentration)(two replications).

[6] = system: brown rice planthopper (Nila^parvata luqens); assay: Test Example 4: rice seedling dip test, brown rice planthopper; assay type: in vivo; settings: 24 h, read-out: LC50 value (ppm)
Protocol: The emulsifiable concentrates of the-following present compounds and control compounds obtained according to Formulation example 2 were each diluted with water to a prescribed concentration, and the rice seedlings (about 12 cm in length) were dipped for 1 minute in the resulting aqueous dilute solutions. After air-drying, the seedlings were placed in a test tube, and 10 adults of brown rice planthopper (Nila^parvata luqens) were liberated in the tube. After one day, the dead and alive of the adults were examined to obtain LC50 value (50% lethal concentration)(two replications).

[7] = system: rice stem borer (Chilo suppressalis); assay: Test Example 5: rice stem borer larvae on treated artificial feed; assay type: in vivo; settings: read-out: LC50 value (ppm)
Source text: The emulsifiable concentrates of the following present compounds and control compounds obtained according to Formulation example 2 were each diluted with water to a prescribed concentration, and one ml each of thus prepared solutions was impregnated into the artificial feeds for rice stem borer (Chilo suppressalis) which had been previously prepared in polyethylene cups of 5.5 cm in diameter, respectively. Ten of the larvae of the 10 days old were liberated thereon. The dead and alive larvae were examined to obtain LC50 value (50% lethal concentration) (two replications).

[8] = Test Example 9: fish toxicity test; assay type: in vivo, Cyprinida carpio; settings: water; young carp; forty-eight hours; 25 ± 1°C; Probit method; read-out: LC50 value (ppm)
Protocol: Twenty liters of each of the aqueous solutions containing the prescribed concentrations of the present compounds and comparative control one, and 10 young carp were liberated thereto. Forty-eight hours after, the dead and alive carp were examined to obtain LC50 value, (50% lethal concentration) according to Probit method. All the tests were carried out in thermostatic aquaria whose temperatures were kept at 25 ± 1°C.
Tested fish: young Japanese carp (Cyprinida carpio) Average body length ± S.D.: 2.94 ± 0.19 cm. Average.body weight ± S.D.: 0.65 ± 0.13 g.

[9] = system: houseflies (Musca domestica) of WHO strains; assay: Test Example 6: housefly filter paper and sucrose bait test; assay type: in vivo; settings: 0.7 ml on filter paper with sucrose bait, adult females, after 48 hours, read-out: LC50 value (ppm)
Protocol: On the bottom of a polyethylene cup of 5.5 cm- in diameter was placed a piece of filter paper of the same size as the bottom, and 0.7 ml of a test solution, prepared by diluting the emulsifiable concentrates of the following present compounds and control compounds prepared according to Formulation example 2 to a prescribed concentration with water, was added dropwise to the filter paper. Thirty milligrams of sucrose were uniformly placed on the filter paper as bait. Thereafter, 10 adult female houseflies (Musca domestica) of WHO strains were liberated in the cup, which was then covered with a lid. After 48 hours, the dead and alive were examined to obtain LC50 value (50% lethal concentration) (two replications).

[10] = 3.5 ppm, 20 last instar larvae, after one day, read-out: Mortality
[11] = 150 ppm solution, 2 ml in 13 g artificial feed, 4th instar larvae, six days after, read-out: Mortality (%)
[12] = 100 ppm spray, 20 ml/2 pots, residual effect, twenty hours after liberation, read-out: Mortality (%) liberated 4 days after application
[13] = 100 ppm spray, 20 ml/2 pots, twenty hours after liberation, read-out: Mortality (%) liberated just after air-drying
[14] = read-out: LC50 value (ppm), rice seedlings dipped 1 minute
[15] = read-out: Mortality (%) liberated 4 days after application
[16] = read-out: Mortality (%) liberated just after air-drying
[17] = rice seedlings dipped 1 minute, read-out: LC50 value (ppm)
[18] = rice seedlings dipped 1 minute, adults, after one day
[19] = 1 ml solution in artificial feed, larvae 10 days old

Row | SMILES | mortality at 3.5 ppm [1, 10] | pest or weed control at 3.5 ppm ([1]; 3.5 ppm) | mortality at 150 ppm [2, 11] | Degree of damage [4] | LC50 [5, 17] | LC50 [7, 19] | LC50 [9] | other results
1 | C=CC(C)(CCCc1cccc(Oc2ccccc2)c1)c1ccc(OCC)cc1 (stereo not drawn) [(1), 3-(4-ethoxyphenyl)-3-methyl-6-(3-phenoxyphenyl)-l-hexene] | > 90% | > 90% | 100% | - ~ + |  |  |  | mortality at 100 ppm [3, 12]: 100%; mortality at 100 ppm [3, 13]: 100%
2 | C#CC(C)(CCCc1cccc(Oc2ccccc2)c1)c1ccc(OCC)cc1 (stereo not drawn) [(3), 3-(4-ethoxyphenyl)-3-methyl-6-(3-phenoxyphenyl)-1-hexyne] |  | > 90% |  | - |  |  |  | mortality at 3.5 ppm [1]: > 90%; mortality at 150 ppm [2]: 100%; LC50 [5, 14]: 18 mg/L (≈ 46.8 µM); LC50 [6]: 34 mg/L (≈ 88.4 µM); LC50 [7]: 3.6 mg/L (≈ 9.36 µM); mortality at 100 ppm [3, 15]: 95%; mortality at 100 ppm [3, 16]: 100%; LC50 at 48 h [8]: > 10 mg/L
3 | C#CC(C)(CCCc1ccc(F)c(Oc2ccccc2)c1)c1ccc(OCC)cc1 (stereo not drawn) [(4)] | > 90% | > 90% | 100% |  | 10 mg/L (≈ 24.8 µM) | 1.9 mg/L (≈ 4.72 µM) | 18 mg/L (≈ 44.7 µM) | LC50 [6, 18]: 24 mg/L (≈ 59.6 µM); mortality at 100 ppm [3, 12]: 100%; mortality at 100 ppm [3, 13]: 100%; LC50 at 48 h [8]: > 10 mg/L
4 | C#CC(C)(CCCc1ccc(F)c(Oc2ccccc2)c1)c1ccc(OC(F)F)cc1 (stereo not drawn) [(6)] | > 90% | > 90% | 100% |  | 36 mg/L (≈ 84.8 µM) | 1.9 mg/L (≈ 4.48 µM) | 15 mg/L (≈ 35.3 µM) | 
5 | C#CC(C)(CCCc1cccc(Oc2ccccc2)c1)c1ccc(OCC=C)cc1 (stereo not drawn) [(7), 3-(4-allyloxyphenyl)-3-methyl-6-(3-phenoxyphenyl)-1-hexyne] |  | > 90% |  | - |  |  |  | mortality at 3.5 ppm [1]: 10 to 90%; mortality at 150 ppm [2]: 100%; mortality at 100 ppm [3, 15]: 93%; mortality at 100 ppm [3, 16]: 100%
6 | C#CC(C)(CCCc1ccc(F)c(Oc2ccccc2)c1)c1ccc(F)cc1 (stereo not drawn) [(9)] | > 90% | > 90% | 100% |  | 49 mg/L (≈ 130 µM) | 4.2 mg/L (≈ 11.2 µM) |  | 
7 | C#CC(C)(CCCc1ccc(F)c(Oc2ccccc2)c1)c1ccc(OCC)c(Cl)c1 (stereo not drawn) [(11)] | > 90% | > 90% | 100% |  | 49 mg/L (≈ 112 µM) | 2.3 mg/L (≈ 5.26 µM) | 12 mg/L (≈ 27.5 µM) | 
8 | C#CC(C)(CCCc1cccc(Oc2ccccc2)c1)c1ccc(OC(F)F)cc1 (stereo not drawn) [(17), 3-(4-difluoromethoxyphenyl)-3-methyl-6-(3-phenoxyphenyl)-l-hexyne] | > 90% | > 90% | 100% |  | 68 mg/L (≈ 167 µM) | 3.6 mg/L (≈ 8.86 µM) |  | 
9 | C#CC(C)(CCCc1ccc(F)c(Oc2ccccc2)n1)c1ccc(OCC)cc1 (stereo not drawn) [(20)] | > 90% | > 90% | 100% | - ~ + | 74 mg/L (≈ 183 µM) |  |  | LC50 [6, 18]: 25 mg/L (≈ 62 µM)
10 | C#CC(C)(CCCc1ccc(F)c(Nc2ccccc2)c1)c1ccc(OCC)cc1 (stereo not drawn) [(21)] | > 90% | > 90% | 100% |  | 24 mg/L (≈ 59.8 µM) | 1.5 mg/L (≈ 3.74 µM) |  | LC50 [6, 18]: 15 mg/L (≈ 37.4 µM)
11 | C#CC(C)(CCCc1ccc(F)c(Oc2ccc(Cl)cc2)c1)c1ccc(OCC)cc1 (stereo not drawn) [(34)] | > 90% | > 90% | 100% |  | 18 mg/L (≈ 41.2 µM) | 4.2 mg/L (≈ 9.61 µM) |  | 
12 | C#CC(C)(CCCc1ccc(F)c(Oc2ccccc2)c1)c1ccc(CC)cc1 (stereo not drawn) [(39)] | > 90% | > 90% | 100% | - ~ + | 21 mg/L (≈ 54.3 µM) |  | 17 mg/L (≈ 44 µM) | 
13 | C#CC(CCCc1ccc(F)c(Oc2ccccc2)c1)c1ccc(OCC)cc1 (stereo not drawn) [(43)] | > 90% | > 90% | 100% | - ~ + | 74 mg/L (≈ 190 µM) |  |  | 
14 | CCOc1ccc(C(C)(C)COCc2cccc(Oc3ccccc3)c2)cc1 [(B), reference compound] |  |  |  | - ~ ++ |  | 7.4 mg/L (≈ 19.7 µM) | 28 mg/L (≈ 74.4 µM) | LC50 [6, 18]: 110 mg/L (≈ 292 µM); mortality at 100 ppm [3, 12]: 65%; mortality at 100 ppm [3, 13]: 10%
15 | CCOC(=O)CC(SP(=S)(OC)OC)C(=O)OCC (stereo not drawn) [(D), Malathion, reference compound] |  |  |  |  |  |  |  | LC50 [5, 14]: ~500 mg/L (≈ 1510 µM); LC50 at 48 h [8]: 4.5 mg/L (≈ 13.6 µM)

From patent EP0193189A1, “Novel compound, its production and insecticidal and acaricidal composition containing it as an active ingredient” (SUMITOMO CHEMICAL COMPANY, LIMITED, priority 1985, dated 1986)
